From patent US20250009743A1, “METHODS OF TREATING CANCERS USING STING AGONISTS” (Dana-Farber Cancer Institute, Inc., priority 2021, published 2025)

Key:
DF101 PDX = test: DF101 ovarian PDX in NSG mice; assay type: in vivo, human
Description: For the PDX in vivo experiments, about 3×10^6 PDX tumor cells were mixed with 3×10^6 human bone marrow mononuclear cells in serum-free DMEM/F12 medium containing 50% Matrigel (CAT #70001, […] Technology) and intraperitoneally transplanted into NOD/SCID IL2Rgnull mice (NSG, The Jackson Laboratory). About three weeks after injection, PDX-bearing mice were equivalently divided into 4 groups according to the luminescent intensity and treated with vehicle control, olaparib, MSA-2 and olaparib in combination with MSA-2 using the same dosing and schedule that have been described above. Ascites was harvested for analysis after three weeks' treatment.
Tumors were chopped and digested in collagenase buffer as described previously (Ding et al., 2018 Cell Rep 25, 2972-2980.e2975). Single cell suspensions of tumor and ascites were obtained by filtering through 70 um strainers and treated with 1× eBioscience RBC lysis buffer (Thermo Fisher) before staining. Single cells suspensions were incubated with LIVE/DEAD Fixable Aqua Dead Cell Stain (Life Technologies, Cat #L34965) for 30 min and then blocked with anti-CD16/32 (Biolegend, clone 93) for 20 min on ice. Samples were then incubated with appropriate antibodies for 30 min on ice. Foxp3 staining buffer set (eBioscience, Cat #00-5523-00) was applied for intracellular markers staining. For the intracellular cytokine analysis, cells were stimulated with Leukocyte Activation Cocktail (BD Biosciences, Cat #550583) at 37° C. for 4-6 hours prior to FACS staining. […] Flow cytometry was performed on an LSRII (BD Biosciences) or Fortessa HTS (BD Biosciences) at DFCI Flow Cytometry Core, and all the data were analyzed using FlowJo software.

PBM tumors = test: PBM ovarian tumor burden in syngeneic FVB/NJ mice; assay type: in vivo, mouse; settings: olaparib 50 mg/kg i.p. 6 days a week; most tumors eventually progressed; FIG. 15B
Procedure: Tumor burden of PBM tumor-bearing mice treated with indicated agents was measured by bioluminescence (ROI, […]) after 2 weeks of treatment (control, n=6; olaparib, n=7, olaparib+MSA-2, n=4). Ordinary one-way ANOVA analysis. **, P<0.01; ***, P<0.001. The murine ovarian tumor model PBM used for this experiment was previously generated (Ding L, Kim H J, Wang Q, Kearns M, Jiang T, Ohlson C E, Li B B, Xie S, Liu J F, Stover E H, Howitt B E, Bronson R T, Lazo S, Roberts T M, Freeman G J, Konstantinopoulos P A, Matulonis U A, Zhao J J. PARP Inhibition Elicits STING-Dependent Antitumor Immunity in Brca1-Deficient Ovarian Cancer. Cell Rep. 2018 Dec. 11;25 (11): 2972-2980.e5. doi: 10.1016/j.celrep.2018.11.054. PMID: 30540933; PMCID: PMC6366450). About 2×10^5 PBM tumor cells were orthotopically transplanted into syngeneic FVB/NJ mice. Ten days after transplantation, Tumor-bearing mice were equivalently divided into control and treatment groups according to the luminescent intensity. Tumor burden of PBM tumor-bearing mice was measured by bioluminescence (ROI, […]). Olaparib (AZD2281) was administered daily by i.p. (intraperitoneal) injection at dose of 50 mg/kg body weight. […]
The PBM and PBM-R tumor cells were transplanted orthotopically into syngeneic FVB/NJ mice to generated tumors for drug evaluation. […] The endpoints were determined by tumor burden and ascites.

With `COc1cc2cc(C(=O)CCC(=O)O)sc2cc1OC` [MSA-2] the “tumor response compared to DF86 PDX tumors” value (DF101 PDX; FIG. 26) was “less responsive”, the “TAM phenotype in ascites” value (DF101 PDX; FIG. 26C-E) was “reprogramed M2-like TAMs to M1-like” and the “proportion of TAMs in ascites” value (DF101 PDX; FIG. 26C-E) was “greatly decreased”.
For `O=C(c1cc(Cc2n[nH]c(=O)c3ccccc23)ccc1F)N1CCN(C(=O)C2CC2)CC1` [olaparib], the PBM tumor response (PBM tumors) was “initial robust response”.
